What is called Kd is the concentration at which binding is half-saturated.

Each structure is given as a SMILES string. “And” between values parts separate entries of the source, which are not always exact repeats. Equal values may be shown once.

One data set has as its system GDX males. The experiment in a line: Examples 5 and 6: gonadectomized (GDX) male rats treated with DHTP, equol or both; histology. In kind it is in vivo, rat. On the procedure:
One week following arrival, animals are gonadectomized (GDX) under isoflurane anesthesia and allowed to recover for 7 days. Following recovery, animals are assigned to the following groups 1) DMSO, 2) DHTP (2 mg/1 kg), 3) racemic equol (0.25 mg/kg), or 4) both DHTP and racemic equol. Injections are given subcutaneously daily for 4 days. Animals are killed via decapitation and trunk blood and tissues are collected for analysis.
Tissues, including prostate, testes and epididymis, are removed from the animal, dissected free of fat and connective tissues, weighed, fixed by immersion in 4% paraformaldehyde, and then sectioned at 15 μm on a cryostat. Tissue sections are mounted on charged slides (Superfrost Plus, Fisher Scientific, Pittsburgh, Pa.) prewarmed to 23° C., and stained with hematoxylin and eosin (H&E), dehydrated in ascending alcohol and cleared with xylene.

For data set [1], the system named is Adult male Sprague-Dawley rats. Kind of data set: Example 3: prostate, epididymis and body weight gain in male rats treated with racemic, R- or S-equol. Type of data set: in vivo, rat. Conditions: 0.25 mg/kg/day sc, seven days. As for the experimental part: Adult male Sprague-Dawley rats are randomly assigned to […] groups and receive daily injections of either DMSO, a racemic mixture of equol at 0.250 mg/kg/day), R-equol at 0.250 mg/kg/day, or S-equol at 0.250 mg/kg/day. The total volume of each injection is 0.3 cc, administered sc at the nape of the rat's neck. After seven consecutive days of treatment, the rats are killed and the body weight gain during the injection period is determined.

The next data set concerns the target T1, ERα (Rattus norvegicus, UniProt P06211).
T1 construct: Full length rat ERα expression vector (pcDNA-ERα; RH Price UCSF); made in house; host or cells: TnT-coupled rabbit reticulocyte lysate in vitro translation (Promega)
T1 sequence (P06211 1-600): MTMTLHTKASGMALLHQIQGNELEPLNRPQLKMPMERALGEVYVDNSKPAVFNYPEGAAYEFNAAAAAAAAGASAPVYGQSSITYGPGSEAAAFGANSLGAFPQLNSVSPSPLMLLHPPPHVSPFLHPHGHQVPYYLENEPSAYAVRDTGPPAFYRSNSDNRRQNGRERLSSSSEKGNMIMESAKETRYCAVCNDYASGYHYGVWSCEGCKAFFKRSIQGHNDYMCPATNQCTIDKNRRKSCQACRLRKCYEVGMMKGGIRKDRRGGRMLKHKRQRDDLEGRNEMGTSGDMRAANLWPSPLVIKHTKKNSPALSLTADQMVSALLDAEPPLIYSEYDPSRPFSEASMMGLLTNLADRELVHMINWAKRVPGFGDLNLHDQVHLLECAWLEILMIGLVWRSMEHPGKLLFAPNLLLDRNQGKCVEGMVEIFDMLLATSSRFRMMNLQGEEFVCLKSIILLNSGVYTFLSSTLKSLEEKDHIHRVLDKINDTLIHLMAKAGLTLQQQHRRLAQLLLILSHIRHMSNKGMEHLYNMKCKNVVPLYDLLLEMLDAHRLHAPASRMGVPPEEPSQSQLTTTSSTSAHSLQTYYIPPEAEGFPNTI
The experiment in a line: Competition binding of equol enantiomers with [3H]E2 for in vitro translated ERα. As for the experimental part: (§1) In vitro binding studies were performed to examine the relative affinities of S— and R-enantiomeric equol with the estrogen receptors ERα and ERβ.
(§2) Synthesis of Hormone Receptor Proteins: Full length rat ERα expression vector (pcDNA-ERα; RH Price UCSF) and ERβ expression vector (pcDNA-ERβ; T A Brown, Pfizer, Groton, […].) were used to synthesize hormone receptors in vitro using the TnT-coupled reticulocyte lysate system (Promega, Madison, Wis.) with T7-RNA polymerase, during a 90 min reaction at 30° C. Translation reaction mixtures were stored at −80° C. until further use.
(§3) Saturation isotherms: In order to calculate and establish the binding affinity of the S-equol and R-equol enantiomers for ERα and ERβ, 100 μL aliquots of reticulocyte lysate supernatant were incubated at optimal time and temperature; 90 min at room temperature (ERβ) and 18 hrs at 4° C. (ERα), with increasing (0.01-100 nm) concentrations of [3H] […] These times were determined empirically and represent optimal binding of receptor with estrogen. Nonspecific binding was assessed using a 300-fold excess of the ER agonist diethylstilbestrol, in parallel tubes. Following incubation, bound and unbound [3H]E2 were separated by passing the incubation reaction through a 1 mL lipophilic Sephadex LH-20 (Sigma-Aldrich Co., Saint Louis, Mo.) column Columns were constructed by packing a disposable pipette tip (1 mL; Labcraft, Curtin Matheson Scientific, Inc, Houston, Tex.) with TEGMD (10 mm Tris-Cl, 1.5 mm EDTA, 10% glycerol, 25 mm molybdate, and 1 mm dithiothreitol, pH 7.4)-saturated Sephadex according to previously published protocols (Wanda et al., 1986; O'Keefe and Handa, 1990). For chromatography, the columns were re-equilibrated with TEGMD (100 μL), and the incubation reactions were added individually to each column and allowed to incubate on the column for an additional 30 min. Following this incubation, 600 μL of TEGMD were added to each column, flow-through was collected, 4 mL scintillation fluid was added, and samples were counted (5 min each) in an 2900 TR Packard scintillation counter (Packard Bioscience, Meriden, Conn.).
(§4) Competition binding studies were used to assess the estrogenic properties of equol's S-equol and R-equol enantiomers. Based on the ability of S and R to compete with [3H]

A further data set deals with T2, ERβ (Rattus norvegicus, UniProt Q62986).
T2 construct: Full length rat ERα expression vector (pcDNA-ERα; RH Price UCSF) and ERβ expression vector (pcDNA-ERβ; T A Brown, Pfizer; made in house; host or cells: TnT-coupled rabbit reticulocyte lysate in vitro translation (Promega)
T2 sequence (Q62986 whole entry): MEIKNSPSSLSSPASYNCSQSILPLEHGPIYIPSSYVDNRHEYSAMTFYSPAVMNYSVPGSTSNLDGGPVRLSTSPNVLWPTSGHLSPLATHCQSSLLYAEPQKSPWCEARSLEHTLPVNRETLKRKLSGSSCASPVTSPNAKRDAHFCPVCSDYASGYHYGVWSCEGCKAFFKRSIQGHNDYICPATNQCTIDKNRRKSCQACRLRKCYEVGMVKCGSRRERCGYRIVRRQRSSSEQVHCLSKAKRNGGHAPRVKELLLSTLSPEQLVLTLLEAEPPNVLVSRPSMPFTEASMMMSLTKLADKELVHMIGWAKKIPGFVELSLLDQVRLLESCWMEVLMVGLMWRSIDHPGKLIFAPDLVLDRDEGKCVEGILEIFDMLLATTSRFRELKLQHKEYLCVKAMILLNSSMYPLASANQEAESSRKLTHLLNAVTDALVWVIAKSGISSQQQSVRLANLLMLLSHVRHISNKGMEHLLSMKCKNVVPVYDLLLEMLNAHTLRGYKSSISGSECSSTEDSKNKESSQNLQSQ
Kind of data set: Competition binding of equol enantiomers with [3H]E2 for in vitro translated ERβ. On the procedure:
as §1, §2, §3, §4

Data set [2] relates to Adult male Sprague-Dawley rats. Kind of data set: Example 15: elevated plus maze of equol injected male rats. In kind it is in vivo, rat. The settings on record: 0.250 mg/Kg/day sc, seven days, n = 8. The text has this: The elevated plus maze is a behavioral test used to quantify anxiety-related behavior and identify anxiolytic drugs (Pellow S. et al., J Neurosci Methods, 14:149-147 (1985); Current Protocols In Neuroscience (1997) 8.3.1-8.3.15, John Wiley & Sons. NY, N.Y.). The test relies on the inherent conflict between exploration of a novel environment and avoidance of its aversive features. Normally, animals spend little time and make few entries into the open arms of the maze compared to the closed arms of the maze (Imhof J. T. et al., Behav Brain Res, 56:177-180 (1993). However, animals treated with anxiolytics, such as benzodiazepines (valium), spend more time in the open arms and the number of entries into the open arms reflects a decrease in anxiety-related behaviors (Pellow S. et al., J Neurosci Methods, 14:149-147 (1985); Current Protocols In Neuroscience (1997) 8.3.1-8.3.15, John Wiley & Sons. NY, N.Y.; Chopin P. et al., Psychopharm, 110:409-414 (1993).
Adult male Sprague-Dawley rats receive daily injections of either DMSO, racemic equol (0.250 mg/Kg/day), R-equol (0.250 mg/Kg/day), or S-equol (0.250 mg/Kg/day) in a total volume of 0.3 cc DMSO by subcutaneous injection. At the end of seven consecutive days of treatment the animals are tested in the elevated plus maze in order to quantify anxiety-related behaviors.

The target in another data set is T3, AR (Rattus norvegicus, UniProt P15207).
T3 construct: incubated with prostate supernatant and then passed through the 30 cm column; from tissue; host or cells: prostate supernatant
T3 sequence (P15207 1-902): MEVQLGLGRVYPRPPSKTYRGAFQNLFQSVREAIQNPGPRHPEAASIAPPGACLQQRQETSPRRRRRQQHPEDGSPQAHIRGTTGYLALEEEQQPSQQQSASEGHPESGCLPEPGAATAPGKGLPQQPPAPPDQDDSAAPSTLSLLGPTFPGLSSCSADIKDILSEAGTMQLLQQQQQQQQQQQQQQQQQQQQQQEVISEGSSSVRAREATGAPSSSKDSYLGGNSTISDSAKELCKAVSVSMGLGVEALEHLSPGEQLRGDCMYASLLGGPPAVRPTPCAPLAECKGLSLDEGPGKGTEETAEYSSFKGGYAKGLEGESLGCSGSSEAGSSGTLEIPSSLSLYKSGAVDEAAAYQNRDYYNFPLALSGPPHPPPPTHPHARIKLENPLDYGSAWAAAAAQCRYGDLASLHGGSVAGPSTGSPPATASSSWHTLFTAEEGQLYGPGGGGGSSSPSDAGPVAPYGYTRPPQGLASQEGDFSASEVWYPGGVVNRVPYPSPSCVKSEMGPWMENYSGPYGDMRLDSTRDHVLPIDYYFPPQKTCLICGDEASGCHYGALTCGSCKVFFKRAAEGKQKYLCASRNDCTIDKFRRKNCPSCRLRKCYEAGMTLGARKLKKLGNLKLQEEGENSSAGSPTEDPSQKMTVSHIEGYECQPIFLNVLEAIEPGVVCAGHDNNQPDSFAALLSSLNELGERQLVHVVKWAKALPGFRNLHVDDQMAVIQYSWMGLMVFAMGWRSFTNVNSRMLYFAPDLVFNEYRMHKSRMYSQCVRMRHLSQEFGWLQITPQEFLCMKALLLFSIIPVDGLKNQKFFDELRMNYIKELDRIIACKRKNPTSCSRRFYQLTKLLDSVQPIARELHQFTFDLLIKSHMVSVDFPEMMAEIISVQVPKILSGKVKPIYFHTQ
Kind of data set: Binding to the androgen receptor (prostate supernatant, [3H]DHT).

The test system of data set [3] is Long-Evans rats, male offspring. The experiment in a line: Example 19: elevated plus maze of adult male offspring after pre- and early postnatal treatment. Type of data set: in vivo, rat. On the procedure:
Pregnant Long-Evans rats were treated via daily subcutaneous injections from gestational day 14 through 20 and during lactation from postnatal day 2 through 25 with: 1) control-DMSO vehicle or, 2) genistein@ 3 mg/day or 3) equol@ 3 mg/day according to the treatment groups. All animals were fed a phytoestrogen-low diet throughout these studies (10 ppm isoflavones). There were no significant differences in maternal body weights just before birth among the treatment groups. […] The maternal and male offspring genistein and equol levels @ 25 days post birth) paralleled that of the treatments administered.
At approximately 90 days of age the male offspring were tested by treatments (control, genistein and equol) in the EPM that was video-taped for 3 minutes and later recorded for the number of entries into—and the percentage of total time spent—on the open arms, as previously described. […] Equol time intervals were 2-fold greater than genistein values and genistein levels were approximately 9-fold greater than controls.

Setting [4] is: competition with [3H]E2, in vitro translated ER.
Where [5] appears, read: 3 mg/day sc to dams, offspring tested at about 90 days.

With `CCC(=O)O[C@H]1CC[C@H]2[C@@H]3CC[C@H]4CC(=O)CC[C@]4(C)[C@H]3CC[C@]12C` [DHTP, DHT propionate, reference compound], in the data set with GDX males (GDX males, given alone, vs DMSO), the LH entry is given as “significantly decreased”. Besides, the prostate weight result in the data set with GDX males (GDX males, given alone, vs vehicle-treated GDX) is given as “significant increase”. Also, the “plasma 5α-DHT” value in the data set with GDX males (GDX, DHTP 2 mg/kg sc daily for 4 days) is listed as “significant elevations”.
Turning to `Oc1ccc([C@H]2COc3cc(O)ccc3C2)cc1` [S-equol], in data set [1], the “Body Wt Gain (g)” value was 56.1 (±3.1) g, the “Epididymis (g)” value is recorded as 0.86 (±0.05) g and the “Prostate (g)” value is 0.35 (±0.03) g. The “relative binding affinity for ERα compared with 17β-estradiol, fold less” value at ERα was 49.2 fold and 49 fold. In addition, the dissociation constant (Kd) on ERα (setting [4]) was 6.41 ± 1.01 nM. In addition, at ERβ, the “affinity for ERβ, fold less” value is given as “approximately 5 fold” and the “binding to ERβ relative to that of 17β-estradiol” value is reported as “approximately 20%”. On ERβ (as stated in the background section), this compound came in with a Kd of 0.7 nM. The Kd on ERβ (setting [4]) turned out to be 0.73 ± 0.2 nM. For the same compound, in data set [2], the “Center Area” value worked out at 27.5 ± 4.1 s and the “Open Arm Time” value came out at 33.6 ± 7.0 s. The “binding to the androgen receptor” value on AR is listed as “does not bind the androgen receptor”.
On to `O=c1c(-c2ccc(O)cc2)coc2cc(O)cc(O)c12` [genistein], for which the “body weights at birth vs controls” value in data set [3] (3 mg/day sc to dams from gestational day 14) is recorded as “slightly (but not significantly) higher”. Besides, in data set [3] (setting [5]), the “entries into the open arms vs controls” value is recorded as “not significantly different” and the “time in the open arms vs controls” value is recorded as “significantly greater”. For the same compound, in data set [3] (offspring tested at about 90 days), the “open arm time intervals, fold greater than controls” value is “approximately 9 fold”.

For the origin of these results see patent publication US20070043108A1, “Use of equol for ameliorating or preventing neuropsychiatric and neurodegenerative diseases or disorders” (priority 2002, published 2007).
